Assay: excess molar enthalpy (molar enthalpy of mixing); xn = mol fraction of the nth substance listed
Conditions: 101 kPa, Liquid, Flow calorimetry

CC(C)CC(C)(C)C [2,2,4-trimethylpentane] + CCCCO
313.15 K
Conditions	excess molar enthalpy [kJ/mol]
x1 = 0.0502	0.105
x1 = 0.1001	0.204
x1 = 0.1505	0.301
x1 = 0.2003	0.393
x1 = 0.2505	0.48
x1 = 0.3001	0.56
x1 = 0.3504	0.635
x1 = 0.4001	0.701
x1 = 0.4499	0.757
x1 = 0.5008	0.802
x1 = 0.5501	0.837
x1 = 0.5999	0.859
x1 = 0.6498	0.867
x1 = 0.7	0.862
x1 = 0.75	0.841
x1 = 0.7996	0.806
x1 = 0.8502	0.75
x1 = 0.9001	0.667
x1 = 0.9506	0.523

CCCCO [butan-1-ol] + Cc1ccccc1
excess molar enthalpy [kJ/mol]
Conditions	298.15 K	313.15 K
x2 = 0.0504	0.103	0.142
x2 = 0.0998	0.208	–
x2 = 0.0999	–	0.287
x2 = 0.1501	0.315	0.429
x2 = 0.2011	0.423	0.568
x2 = 0.251	0.524	–
x2 = 0.2512	–	0.696
x2 = 0.2999	0.619	–
x2 = 0.3	–	0.814
x2 = 0.3495	0.709	–
x2 = 0.3496	–	0.923
x2 = 0.3998	0.792	–
x2 = 0.4	–	1.02
x2 = 0.4509	0.865	–
x2 = 0.4511	–	1.1
x2 = 0.5009	0.923	–
x2 = 0.501	–	1.17
x2 = 0.5495	0.967	–
x2 = 0.5496	–	1.22
x2 = 0.6009	0.998	–
x2 = 0.601	–	1.25
x2 = 0.6509	1.01	–
x2 = 0.6511	–	1.26
x2 = 0.6996	1.01	–
x2 = 0.6998	–	1.25
x2 = 0.7512	0.979	–
x2 = 0.7513	–	1.21
x2 = 0.7992	0.929	1.15
x2 = 0.85	0.848	1.04
x2 = 0.8993	0.726	0.878
x2 = 0.9493	0.518	0.597

C1CCCCC1 [cyclohexane] + CCCCO
313.15 K
Conditions	excess molar enthalpy [kJ/mol]
x1 = 0.0505	0.0981
x1 = 0.1001	0.192
x1 = 0.1505	0.284
x1 = 0.2	0.37
x1 = 0.2505	0.453
x1 = 0.2999	0.528
x1 = 0.3501	0.598
x1 = 0.4003	0.662
x1 = 0.4504	0.717
x1 = 0.5003	0.763
x1 = 0.55	0.796
x1 = 0.5995	0.816
x1 = 0.6499	0.822
x1 = 0.7	0.813
x1 = 0.7499	0.787
x1 = 0.7995	0.745
x1 = 0.8499	0.681
x1 = 0.8999	0.593
x1 = 0.9496	0.458

C=CCCCC [hex-1-ene] + CCCCO
excess molar enthalpy [kJ/mol]
Conditions	298.15 K	313.15 K
x1 = 0.05	0.0435	0.0787
x1 = 0.1001	–	0.167
x1 = 0.1002	0.098	–
x1 = 0.1505	–	0.252
x1 = 0.1506	0.156	–
x1 = 0.2002	–	0.34
x1 = 0.2003	0.221	–
x1 = 0.2499	–	0.427
x1 = 0.25	0.283	–
x1 = 0.3004	–	0.508
x1 = 0.3005	0.347	–
x1 = 0.3498	–	0.588
x1 = 0.35	0.405	–
x1 = 0.4	–	0.663
x1 = 0.4001	0.462	–
x1 = 0.4498	–	0.728
x1 = 0.4499	0.515	–
x1 = 0.5001	–	0.785
x1 = 0.5003	0.561	–
x1 = 0.5501	–	0.83
x1 = 0.5503	0.597	–
x1 = 0.5995	–	0.862
x1 = 0.5996	0.624	–
x1 = 0.6504	–	0.88
x1 = 0.6505	0.643	–
x1 = 0.7005	–	0.881
x1 = 0.7006	0.648	–
x1 = 0.7498	–	0.867
x1 = 0.7499	0.64	–
x1 = 0.8005	–	0.835
x1 = 0.8006	0.616	–
x1 = 0.8503	0.576	0.782
x1 = 0.9002	0.513	0.693
x1 = 0.9501	0.406	0.533

From the NIST ThermoML archive (doi:10.1016/j.fluid.2011.11.005)
